Measured values taken from patent US20210386367A1, “DEVICES AND SYSTEMS FOR GASTROINTESTINAL MICROBIOME DETECTION AND MANIPULATION” (Progenity, Inc., priority 2018, published 2021).

Legend:
Format in all cases: cell-based
[1] = system: Enterobacter aerogenes; experiment: Broth microdilution MIC, 50 clinical isolates
Summary of the method: (§1)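 Medium: cation-adjusted MHB, plus 3% lysed horse blood for streptococci, which were incubated with CO2 planchets. Final inoculum approx. 5×10^5 CFU/mL; serial two-fold drug dilutions per CLSI.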

[2] = system: Proteus mirabilis; experiment: Broth microdilution MIC, 50 clinical isolates
Summary of the method: as §1

[3] = system: Pseudomonas aeruginosa; experiment: Broth microdilution MIC, 50 clinical isolates
Summary of the method: as §1

[4] = system: Klebsiella spp.; experiment: Broth microdilution MIC, 50 clinical isolates (20 K. oxytoca, 30 K. pneumoniae)
Description: Minimal inhibitory concentration (MIC) values were determined by broth microdilution or agar dilution in accordance with guidelines from the Clinical and Laboratory Standards Institute (CLSI; (1) “Methods for Dilution Antimicrobial Susceptibility Tests for Bacteria That Grow Aerobically; Approved Standard; 11th ed.” CLSI standard M07-A11, 2018; (2) “Performance Standards for Antimicrobial Susceptibility Testing; Twenty-Eighth Informational Supplement,” CLSI document M100-S28, 2018; and (3) “Methods for Antimicrobial Susceptibility Testing of Anaerobic Bacteria; Approved Standard—Eighth Edition,” CLSI document M11-A8, 2012).
Tested aerobically by broth microdilution: • Escherichia coli, n=50 • Klebsiella spp., n=50 • Pseudomonas aeruginosa, n=50 • Streptococcus spp., n=50 • Staphylococcus aureus, n=50 • Enterococcus faecalis, n=50 • Enterobacter aerogenes, n=50 • Proteus mirabilis, n=50
Broth microdilution testing of aerobic bacteria was conducted in cation-adjusted Mueller Hinton broth (MHBII). For testing streptococci, lysed horse blood (LHB) was added to MHBII broth at a final concentration of 3%. Where LHB was used, it was added after filtering.
Broth microdilution susceptibility testing in 96-well microplates was conducted in accordance with CLSI methods (1) and (2). Automated liquid handlers were used to conduct serial dilutions and liquid transfers, including the Multidrop 384 (Labsystems, Helsinki, Finland), Biomek 2000, and the Biomek FX (Beckman Coulter, Fullerton, Calif.). All wells in columns 2 through 12 of a standard 96-well microdilution plate (Costar 3795) were filled with 150 μL of the appropriate diluent. Then, 300 μL of the test agents were added to the wells of column 1 of the plates at 100× the highest final concentration to be tested. Serial two-fold dilutions were made across the rows through column 11 using the Biomek 2000. The wells of column 12 contained no drug and served as the growth control wells. This plate served as the “mother plate” from which MIC assay plates or “daughter plates” were made.
The daughter plates were loaded with 190 μL per well of the appropriate medium using the Multidrop 384. The daughter plates were created using the Biomek FX which transferred 2 μL of drug solution from each well of a mother plate to each corresponding well of the daughter plate in a single step. A standardized inoculum of each test organism was prepared per CLSI methods (1) to equal a 0.5 McFarland standard, followed by a dilution of 1:20 for aerobes and 1:10 for anaerobes. The plates were then inoculated with 10 μL of the diluted inoculum using the Biomek 2000 from low to high drug concentration, resulting in a final concentration of approximately 5×10^5 CFU/mL per well. An un-inoculated plate was incubated in parallel for each medium for the purpose of assessing solubility of the drug in the test media.
Inoculated plates were stacked 3 or 4 high, covered with a sterile lid on the top plate, placed into boxes with CO2 planchets (streptococci) or plastic bags (all other isolates). Plates were incubated at 35° C. for 16-24 hr in ambient air for aerobes or for 42-48 hr in the anaerobic environment of the Bactron II anaerobe chamber (Sheldon Manufacturing Co.; Cornelius, Oreg.). Following incubation, the microplates were removed from the incubator and viewed from the bottom using a plate viewer. The MIC values were read and recorded as the lowest concentration of drug that inhibited visible growth of the organism as per CLSI methods (1) and (2).

Substance: piperacillin/tazobactam [piperacillin-tazobactam]
- % I [1]: 16%
- % R [1]: 8%
- % S [1]: 76%
- MIC50 [1]: 4 µg/mL
- MIC90 [1]: 64 µg/mL
- Mode [1]: 2 µg/mL
- Cumulative percentage of isolates inhibited at MIC ([1]; 1 μg/mL): 4.0%
- Number of test isolates at MIC ([1]; 1 μg/mL): 2
- Cumulative percentage of isolates inhibited at MIC ([1]; 2 μg/mL): 38.0%
- Number of test isolates at MIC ([1]; 2 μg/mL): 17
- Cumulative percentage of isolates inhibited at MIC ([1]; 4 μg/mL): 62.0%
- Number of test isolates at MIC ([1]; 4 μg/mL): 12
- Cumulative percentage of isolates inhibited at MIC ([1]; 8 μg/mL): 74.0%
- Number of test isolates at MIC ([1]; 8 μg/mL): 6
- Cumulative percentage of isolates inhibited at MIC ([1]; 16 μg/mL): 76.0%
- Number of test isolates at MIC ([1]; 16 μg/mL): 1
- Cumulative percentage of isolates inhibited at MIC ([1]; 32 μg/mL): 88.0%
- Number of test isolates at MIC ([1]; 32 μg/mL): 6
- Cumulative percentage of isolates inhibited at MIC ([1]; 64 μg/mL): 92.0%
- Number of test isolates at MIC ([1]; 64 μg/mL): 2
- Cumulative percentage of isolates inhibited at MIC ([1]; 128 μg/mL): 98.0%
- Number of test isolates at MIC ([1]; 128 μg/mL): 3
- Cumulative percentage of isolates inhibited at MIC ([1]; >128 μg/mL): 100.0%
- Number of test isolates at MIC ([1]; >128 μg/mL): 1
- % S [2]: 100%
- MIC50 [2]: 0.25 µg/mL
- MIC90 [2]: 1 µg/mL
- MIC range [2]: ≤0.12 to 2 µg/mL
- Mode [2]: 0.25 µg/mL
- Cumulative percentage of isolates inhibited at MIC ([2]; 0.5 μg/mL): 82.0%
- Number of test isolates at MIC ([2]; 0.5 μg/mL): 16
- Cumulative percentage of isolates inhibited at MIC ([2]; 1 μg/mL): 96.0%
- Number of test isolates at MIC ([2]; 1 μg/mL): 7
- Cumulative percentage of isolates inhibited at MIC ([2]; 2 μg/mL): 100.0%
- Number of test isolates at MIC ([2]; 2 μg/mL): 2
- Cumulative percentage of isolates inhibited at MIC ([2]; […]): 50.0%
- Number of test isolates at MIC ([2]; […]): 22
- Cumulative percentage of isolates inhibited at MIC ([2]; ≤[…]): 6.0%
- Number of test isolates at MIC ([2]; ≤[…]): 3
- % I [3]: 14%
- % R [3]: 22%
- % S [3]: 64%
- MIC50 [3]: 8 µg/mL
- MIC90 [3]: >128 µg/mL
- Mode [3]: 4 µg/mL
- Cumulative percentage of isolates inhibited at MIC ([3]; 2 μg/mL): 6.0%
- Number of test isolates at MIC ([3]; 2 μg/mL): 3
- Cumulative percentage of isolates inhibited at MIC ([3]; 4 μg/mL): 40.0%
- Number of test isolates at MIC ([3]; 4 μg/mL): 17
- Cumulative percentage of isolates inhibited at MIC ([3]; 8 μg/mL): 60.0%
- Number of test isolates at MIC ([3]; 8 μg/mL): 10
- Cumulative percentage of isolates inhibited at MIC ([3]; 16 μg/mL): 64.0%
- Number of test isolates at MIC ([3]; 16 μg/mL): 2
- Cumulative percentage of isolates inhibited at MIC ([3]; 32 μg/mL): 74.0%
- Number of test isolates at MIC ([3]; 32 μg/mL): 5
- Cumulative percentage of isolates inhibited at MIC ([3]; 64 μg/mL): 78.0%
- Number of test isolates at MIC ([3]; 64 μg/mL): 2
- Cumulative percentage of isolates inhibited at MIC ([3]; 128 μg/mL): 84.0%
- Number of test isolates at MIC ([3]; 128 μg/mL): 3
- Cumulative percentage of isolates inhibited at MIC ([3]; >128 μg/mL): 100.0%
- Number of test isolates at MIC ([3]; >128 μg/mL): 8
- % I [4]: 2%
- % R [4]: 24%
- % S [4]: 74%
- MIC50 [4]: 4 µg/mL
- MIC90 [4]: >128 µg/mL
- Mode [4]: 2 µg/mL
- Cumulative percentage of isolates at MIC ([4]; 0.5 μg/mL): 4.0%
- Number of test isolates at MIC ([4]; 0.5 μg/mL): 2.
- Cumulative percentage of isolates at MIC ([4]; 1 μg/mL): 14.0%
- Number of test isolates at MIC ([4]; 1 μg/mL): 5
- Cumulative percentage of isolates at MIC ([4]; 2 μg/mL): 48.0%
- Number of test isolates at MIC ([4]; 2 μg/mL): 17
- Cumulative percentage of isolates at MIC ([4]; 4 μg/mL): 58.0%
- Number of test isolates at MIC ([4]; 4 μg/mL): 5
- Cumulative percentage of isolates at MIC ([4]; 8 μg/mL): 68.0%
- Number of test isolates at MIC ([4]; 8 μg/mL): 5
- Cumulative percentage of isolates at MIC ([4]; 16 μg/mL): 74.0%
- Number of test isolates at MIC ([4]; 16 μg/mL): 3
- Cumulative percentage of isolates at MIC ([4]; 64 μg/mL): 76.0%
- Number of test isolates at MIC ([4]; 64 μg/mL): 1
- Cumulative percentage of isolates at MIC ([4]; 128 μg/mL): 78.0%
- Number of test isolates at MIC ([4]; 128 μg/mL): 1
- Cumulative percentage of isolates at MIC ([4]; >128 μg/mL): 100.0%
- Number of test isolates at MIC ([4]; >128 μg/mL): 11
